Test results: ChEMBL document CHEMBL1201862, “PubChem BioAssay data set” (2004)
The source made the active and inactive calls.

Experiments:
[1] = target: T1, Acyl-homoserine lactone acylase PvdQ (Pseudomonas aeruginosa (strain LESB58), UniProt Q9I194); experiment: PvdQ acylase enzyme activity blockers – biochemical, fluorescence, plate reader and imaging, cherry-picks, dose response (AID 493231)
T1 sequence (Q9I194 whole entry): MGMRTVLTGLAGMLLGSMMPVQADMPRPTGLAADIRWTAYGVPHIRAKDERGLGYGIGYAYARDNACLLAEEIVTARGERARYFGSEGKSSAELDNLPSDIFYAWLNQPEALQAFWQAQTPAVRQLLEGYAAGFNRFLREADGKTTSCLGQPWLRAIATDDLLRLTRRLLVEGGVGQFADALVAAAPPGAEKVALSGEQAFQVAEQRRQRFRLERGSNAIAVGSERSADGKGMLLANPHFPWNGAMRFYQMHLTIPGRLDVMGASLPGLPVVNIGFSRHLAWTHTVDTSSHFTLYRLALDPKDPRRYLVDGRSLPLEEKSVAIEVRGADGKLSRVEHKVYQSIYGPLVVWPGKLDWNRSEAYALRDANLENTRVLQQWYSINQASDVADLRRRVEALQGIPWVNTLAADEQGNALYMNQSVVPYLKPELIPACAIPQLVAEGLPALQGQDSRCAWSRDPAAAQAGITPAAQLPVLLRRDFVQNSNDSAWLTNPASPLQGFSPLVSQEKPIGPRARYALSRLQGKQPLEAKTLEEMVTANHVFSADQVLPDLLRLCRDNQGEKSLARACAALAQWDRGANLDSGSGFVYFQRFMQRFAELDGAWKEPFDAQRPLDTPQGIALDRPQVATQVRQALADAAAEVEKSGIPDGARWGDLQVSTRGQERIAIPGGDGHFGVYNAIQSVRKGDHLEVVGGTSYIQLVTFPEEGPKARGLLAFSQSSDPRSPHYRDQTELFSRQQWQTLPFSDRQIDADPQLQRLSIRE

Nonstructural protein 1 = Nonstructural protein 1 (Influenza A virus, UniProt Q194T2); type: functional, Influenza A virus (A/California/07/2009(H1N1))
Sequence of Nonstructural protein 1 (Q194T2 whole entry): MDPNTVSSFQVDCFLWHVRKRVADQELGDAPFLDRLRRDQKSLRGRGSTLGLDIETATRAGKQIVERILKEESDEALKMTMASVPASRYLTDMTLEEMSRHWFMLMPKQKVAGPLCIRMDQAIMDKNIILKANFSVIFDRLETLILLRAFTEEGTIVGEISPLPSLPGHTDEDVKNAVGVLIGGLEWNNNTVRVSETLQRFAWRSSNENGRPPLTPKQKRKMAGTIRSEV

[2] = target: T2, Heat shock factor protein 1 (Mus musculus, UniProt P38532); experiment: decrease of HSF1-responsive luciferase luminescence – cell-based, NIH3T3, dose retest, confirmation (AID 2382); type: functional;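 also: NIH3T3 fibroblasts with HSF1-driven luciferase reporter stressed by proteasome inhibitor MG132; luminescence from HSF1-driven luciferase expression after 8 hours of MG132 stress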
T2 sequence (P38532 whole entry): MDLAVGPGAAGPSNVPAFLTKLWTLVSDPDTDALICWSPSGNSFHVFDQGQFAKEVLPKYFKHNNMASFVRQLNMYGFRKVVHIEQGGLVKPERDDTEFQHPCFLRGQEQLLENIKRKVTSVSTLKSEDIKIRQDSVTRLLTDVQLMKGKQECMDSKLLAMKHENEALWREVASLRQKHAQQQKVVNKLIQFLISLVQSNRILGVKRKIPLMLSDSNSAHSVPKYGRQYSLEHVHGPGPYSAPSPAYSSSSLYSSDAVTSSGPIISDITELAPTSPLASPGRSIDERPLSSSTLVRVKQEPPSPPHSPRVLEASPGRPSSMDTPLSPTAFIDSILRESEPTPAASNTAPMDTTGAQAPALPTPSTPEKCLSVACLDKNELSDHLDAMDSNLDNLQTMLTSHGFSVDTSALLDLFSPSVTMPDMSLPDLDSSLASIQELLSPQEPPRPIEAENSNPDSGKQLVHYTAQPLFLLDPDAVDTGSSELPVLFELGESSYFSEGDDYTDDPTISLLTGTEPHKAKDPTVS

[3] = target: DNA dC->dU-editing enzyme APOBEC-3A (Homo sapiens, UniProt P31941); experiment: A3A deaminase inhibition for selectivity – biochemical, dose response (AID 504722); type: functional
Sequence of DNA dC->dU-editing enzyme APOBEC-3A (P31941 whole entry): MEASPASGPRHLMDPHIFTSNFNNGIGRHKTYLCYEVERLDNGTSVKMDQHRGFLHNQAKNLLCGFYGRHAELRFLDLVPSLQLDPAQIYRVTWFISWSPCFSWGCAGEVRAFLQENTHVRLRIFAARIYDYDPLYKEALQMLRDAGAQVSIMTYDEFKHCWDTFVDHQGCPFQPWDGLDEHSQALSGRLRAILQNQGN

[4] = target: DNA dC->dU-editing enzyme APOBEC-3G (Homo sapiens, UniProt Q9HC16); experiment: Dose Response confirmation of small molecule APOBEC3G DNA Deaminase Inhibitors via a fluorescence-based single-stranded DNA deaminase assay. [Related pubchem assays (depositor defined):AID493012, AID493028]; type: functional
Sequence of DNA dC->dU-editing enzyme APOBEC-3G (Q9HC16 whole entry): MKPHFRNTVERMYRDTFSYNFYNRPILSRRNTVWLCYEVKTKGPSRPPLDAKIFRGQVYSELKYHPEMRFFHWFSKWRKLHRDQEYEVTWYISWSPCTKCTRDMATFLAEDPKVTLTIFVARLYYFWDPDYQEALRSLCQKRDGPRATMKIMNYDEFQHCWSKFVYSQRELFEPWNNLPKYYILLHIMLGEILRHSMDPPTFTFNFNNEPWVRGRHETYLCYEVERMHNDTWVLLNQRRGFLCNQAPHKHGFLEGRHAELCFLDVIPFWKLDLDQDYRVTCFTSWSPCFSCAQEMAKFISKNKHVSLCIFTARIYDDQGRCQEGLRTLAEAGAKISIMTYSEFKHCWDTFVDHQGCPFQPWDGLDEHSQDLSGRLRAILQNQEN

[5] = target: Induced myeloid leukemia cell differentiation protein Mcl-1 (Homo sapiens, UniProt Q07820); type: functional
Sequence of Induced myeloid leukemia cell differentiation protein Mcl-1 (Q07820 whole entry): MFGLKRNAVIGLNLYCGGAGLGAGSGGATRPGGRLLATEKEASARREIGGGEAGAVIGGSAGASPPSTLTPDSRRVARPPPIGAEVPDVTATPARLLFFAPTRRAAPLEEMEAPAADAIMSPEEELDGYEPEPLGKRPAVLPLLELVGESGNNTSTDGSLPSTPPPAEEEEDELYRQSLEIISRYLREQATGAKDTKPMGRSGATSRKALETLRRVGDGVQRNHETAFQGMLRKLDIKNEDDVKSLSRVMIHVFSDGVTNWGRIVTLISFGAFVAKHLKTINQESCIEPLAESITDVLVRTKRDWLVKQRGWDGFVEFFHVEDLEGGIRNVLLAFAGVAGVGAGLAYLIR

[6] = HEK-293T cell viability reduction – luminescence, B-cell screen hits, cytotoxicity control for BCR NF-kB inhibitor project, dose response (AID 489021); type: functional, cell-based;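 also: HEK-293T cells carrying an NF-kB luciferase reporter; cells exposed to compound for about 14 hours before viability readout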
HEK293 = experiment: EBV LMP1 TES2 canonical NF-kB signalling blockers – cell-based, HEK293, luciferase, cherry-pick, dose response (AID 588343); type: functional; settings: Homo sapiens
[7] = A cytotoxicity screen of small molecule inhibitors of the PhoP region in Salmonella typhi identified in the primary screen. [Related pubchem assays: 1850, 1864, 1985 ]; type: functional
Genome polyprotein = Genome polyprotein (dengue virus type 2, UniProt P29990); experiment: flavivirus cap methylation enzyme inhibition – biochemical, confirmation dose response, primary screen (AID 588689); type: functional
[8] = target: FAD-linked sulfhydryl oxidase ALR (Homo sapiens, UniProt P55789); experiment: ALR-catalysed DTT oxidation blockers – biochemical, H2O2 detection, luminescence, cherry-pick, dose response (AID 493248)
Sequence of FAD-linked sulfhydryl oxidase ALR (P55789 whole entry): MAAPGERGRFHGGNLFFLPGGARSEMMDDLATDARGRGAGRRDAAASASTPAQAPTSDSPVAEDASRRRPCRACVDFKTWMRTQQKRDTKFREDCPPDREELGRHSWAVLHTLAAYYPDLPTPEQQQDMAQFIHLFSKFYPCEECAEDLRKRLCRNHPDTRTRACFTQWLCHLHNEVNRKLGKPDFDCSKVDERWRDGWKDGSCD

[9] = viability of PTEN-deleted HCT116 cells – cell-based, HCT116 PTEN knockout, dose response (AID 1047); type: functional;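 also: HCT116 colon tumor cells with PTEN knocked out; cells exposed to compound for 60 hours before readout; potency for loss of cell viability measured by luminescence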
[10] = viability of HCT116 lacking mutant beta-catenin – cell-based, human colon tumor, dose response (AID 1045); type: functional;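 also: HCT116 colon tumor cells with beta catenin knocked out; cells exposed to compound for 60 hours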
Beta-galactosidase = Beta-galactosidase (Escherichia coli, UniProt Q8VNN2); experiment: detection-enzyme interference by beta-gal modulators – biochemical, E. coli enzyme, set 3, artefact control for CCR6 antagonist project, dose response (AID 504712); type: functional
Sequence of Beta-galactosidase (Q8VNN2 whole entry): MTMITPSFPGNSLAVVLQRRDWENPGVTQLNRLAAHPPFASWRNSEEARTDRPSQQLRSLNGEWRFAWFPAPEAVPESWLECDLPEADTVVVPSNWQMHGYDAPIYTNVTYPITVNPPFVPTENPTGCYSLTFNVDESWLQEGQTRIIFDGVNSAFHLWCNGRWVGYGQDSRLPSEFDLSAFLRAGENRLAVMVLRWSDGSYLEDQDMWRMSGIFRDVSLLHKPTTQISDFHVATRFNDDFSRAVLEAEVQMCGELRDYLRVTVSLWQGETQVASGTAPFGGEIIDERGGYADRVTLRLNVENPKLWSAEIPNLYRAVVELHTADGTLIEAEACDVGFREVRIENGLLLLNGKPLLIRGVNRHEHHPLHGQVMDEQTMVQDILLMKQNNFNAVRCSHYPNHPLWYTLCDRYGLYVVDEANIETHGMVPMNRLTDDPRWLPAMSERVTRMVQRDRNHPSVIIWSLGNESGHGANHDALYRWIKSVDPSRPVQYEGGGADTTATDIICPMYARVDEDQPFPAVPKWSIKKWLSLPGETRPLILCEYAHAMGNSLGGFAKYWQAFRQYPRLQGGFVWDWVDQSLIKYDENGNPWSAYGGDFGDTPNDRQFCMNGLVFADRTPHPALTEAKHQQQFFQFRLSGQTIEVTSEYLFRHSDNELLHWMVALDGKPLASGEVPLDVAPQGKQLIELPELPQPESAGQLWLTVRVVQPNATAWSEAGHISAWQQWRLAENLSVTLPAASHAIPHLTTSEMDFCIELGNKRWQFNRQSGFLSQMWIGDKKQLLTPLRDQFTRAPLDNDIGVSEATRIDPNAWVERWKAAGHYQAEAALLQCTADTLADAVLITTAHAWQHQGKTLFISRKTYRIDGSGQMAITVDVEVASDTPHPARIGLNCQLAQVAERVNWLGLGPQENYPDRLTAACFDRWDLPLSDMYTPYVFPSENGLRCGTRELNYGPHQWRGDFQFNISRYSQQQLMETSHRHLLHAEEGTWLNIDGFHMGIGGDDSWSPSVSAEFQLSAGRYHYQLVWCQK

[11] = Trypanosoma cruzi growth suppression in host cells – NIH3T3 host cells, beta-gal luminescence, confirmation (AID 2044); type: functional, cell-based;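 also: intracellular parasites grown in NIH/3T3 mouse fibroblasts as host cells; luminescent beta-galactosidase reporter signal from transgenic T. cruzi replicating inside host cells; inhibitors lower the luminescence signal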
[12] = NIH3T3 cell viability loss – ATP luminescence, mouse fibroblasts, counter-screen, dose response (AID 2010); type: functional, cell-based;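 also: cells exposed to compound for about 90 hours before reading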
Hexokinase = target: T3, Hexokinase (Trypanosoma brucei, UniProt Q38C41); experiment: Confirmation assay for inhibitors of Trypanosoma brucei hexokinase 1-Analogue-first series. [Related pubchem assays (depositor defined):AID1430, AID1632, AID2516, AID2560, AID2579, AID2600, AID449725, AID492951]; type: functional
T3 sequence (Q38C41 whole entry): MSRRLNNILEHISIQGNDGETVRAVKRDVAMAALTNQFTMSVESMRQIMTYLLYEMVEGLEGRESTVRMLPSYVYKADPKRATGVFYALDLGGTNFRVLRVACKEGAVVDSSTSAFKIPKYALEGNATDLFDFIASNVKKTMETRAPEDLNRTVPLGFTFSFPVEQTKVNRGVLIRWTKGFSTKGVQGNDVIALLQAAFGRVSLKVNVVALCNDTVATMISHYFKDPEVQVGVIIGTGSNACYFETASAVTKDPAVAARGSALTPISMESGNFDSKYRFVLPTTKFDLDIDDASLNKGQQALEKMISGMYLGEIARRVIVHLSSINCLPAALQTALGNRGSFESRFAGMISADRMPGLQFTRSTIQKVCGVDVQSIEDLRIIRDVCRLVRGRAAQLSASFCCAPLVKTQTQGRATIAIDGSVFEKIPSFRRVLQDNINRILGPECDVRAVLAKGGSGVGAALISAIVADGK

SUMO-activating enzyme [13] = target: T4, SUMO-activating enzyme (Homo sapiens, UniProt Q9UBT2); experiment: blockers of UBC9-mediated SUMO conjugation – biochemical, AlphaScreen, SUMOylation inhibitor project, confirmation (AID 2018); type: functional
T4 sequence (Q9UBE0 whole entry): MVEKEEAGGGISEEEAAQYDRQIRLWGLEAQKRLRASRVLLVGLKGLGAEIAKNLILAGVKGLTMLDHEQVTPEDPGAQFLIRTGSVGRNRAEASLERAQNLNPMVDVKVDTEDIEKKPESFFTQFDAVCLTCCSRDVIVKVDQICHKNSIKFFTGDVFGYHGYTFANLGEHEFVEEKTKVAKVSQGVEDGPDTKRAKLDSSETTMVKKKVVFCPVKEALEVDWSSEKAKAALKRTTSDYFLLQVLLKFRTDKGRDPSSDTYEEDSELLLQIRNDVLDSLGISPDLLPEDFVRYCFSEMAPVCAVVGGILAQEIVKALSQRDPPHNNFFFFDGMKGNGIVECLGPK
T4 sequence (Q9UBT2 whole entry): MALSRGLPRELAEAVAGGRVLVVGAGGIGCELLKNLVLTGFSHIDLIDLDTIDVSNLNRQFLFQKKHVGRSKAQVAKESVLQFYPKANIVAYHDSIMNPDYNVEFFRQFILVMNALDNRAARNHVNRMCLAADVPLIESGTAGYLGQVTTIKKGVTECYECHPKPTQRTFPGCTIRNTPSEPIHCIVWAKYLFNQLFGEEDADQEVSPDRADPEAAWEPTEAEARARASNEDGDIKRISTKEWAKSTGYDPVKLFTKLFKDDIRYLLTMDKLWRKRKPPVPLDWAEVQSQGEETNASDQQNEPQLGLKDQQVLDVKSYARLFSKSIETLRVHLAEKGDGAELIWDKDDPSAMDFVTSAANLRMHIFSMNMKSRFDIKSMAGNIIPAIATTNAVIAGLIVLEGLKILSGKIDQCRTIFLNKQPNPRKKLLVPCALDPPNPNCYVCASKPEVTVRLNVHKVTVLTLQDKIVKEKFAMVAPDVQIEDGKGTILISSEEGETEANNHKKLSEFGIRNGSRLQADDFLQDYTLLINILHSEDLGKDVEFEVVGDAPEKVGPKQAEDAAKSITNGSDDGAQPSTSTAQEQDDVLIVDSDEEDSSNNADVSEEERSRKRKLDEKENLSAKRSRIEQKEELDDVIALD

SUMO-activating enzyme [14] = target: T4, SUMO-activating enzyme; experiment: blockers of SAE1/SAE2–UBC9 SUMO transfer – biochemical, HTRF, uHTS, primary screen (AID 2006); type: protein-complex assay
Cytochrome P450 3A4 = Cytochrome P450 3A4 (Homo sapiens, UniProt P08684); settings: Potency;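 also: confirmatory qHTS run detecting inhibitors and substrates of CYP3A4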
Sequence of Cytochrome P450 3A4 (P08684 whole entry): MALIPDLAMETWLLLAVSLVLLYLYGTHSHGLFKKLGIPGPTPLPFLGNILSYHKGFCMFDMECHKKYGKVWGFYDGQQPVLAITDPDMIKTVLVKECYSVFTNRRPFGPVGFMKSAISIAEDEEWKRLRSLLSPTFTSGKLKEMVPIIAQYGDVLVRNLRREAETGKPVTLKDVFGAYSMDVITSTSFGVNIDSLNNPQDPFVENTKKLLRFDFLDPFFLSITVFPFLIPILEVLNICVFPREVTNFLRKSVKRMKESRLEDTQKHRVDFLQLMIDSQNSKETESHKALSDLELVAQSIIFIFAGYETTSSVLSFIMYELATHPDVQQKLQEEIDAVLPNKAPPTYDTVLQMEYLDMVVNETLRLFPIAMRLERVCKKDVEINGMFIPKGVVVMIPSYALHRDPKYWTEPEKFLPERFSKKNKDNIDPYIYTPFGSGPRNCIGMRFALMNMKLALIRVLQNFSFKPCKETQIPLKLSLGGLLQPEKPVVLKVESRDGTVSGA

Estrogen receptor = target: T5, Estrogen receptor (Homo sapiens, UniProt P03372);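 also: potency for inhibiting coactivator peptide recruitment to the receptor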
T5 sequence (P03372 whole entry): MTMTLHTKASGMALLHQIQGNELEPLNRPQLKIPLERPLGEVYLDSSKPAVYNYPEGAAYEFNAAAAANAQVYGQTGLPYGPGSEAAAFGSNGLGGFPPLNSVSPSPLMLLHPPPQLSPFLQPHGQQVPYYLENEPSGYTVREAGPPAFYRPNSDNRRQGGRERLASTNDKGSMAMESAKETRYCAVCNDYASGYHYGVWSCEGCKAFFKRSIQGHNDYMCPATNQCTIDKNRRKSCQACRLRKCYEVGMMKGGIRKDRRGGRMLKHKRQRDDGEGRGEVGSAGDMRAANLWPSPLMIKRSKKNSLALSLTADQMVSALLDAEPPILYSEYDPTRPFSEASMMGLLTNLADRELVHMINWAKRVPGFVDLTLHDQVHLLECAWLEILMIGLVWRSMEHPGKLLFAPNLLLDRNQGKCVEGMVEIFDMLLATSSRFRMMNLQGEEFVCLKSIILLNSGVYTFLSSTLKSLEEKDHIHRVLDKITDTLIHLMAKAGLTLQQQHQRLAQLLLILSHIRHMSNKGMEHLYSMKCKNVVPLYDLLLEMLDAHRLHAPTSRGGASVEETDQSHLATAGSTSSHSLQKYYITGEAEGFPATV

[15] = target: T6, Voltage-gated N-type calcium channel alpha-1B subunit/Amyloid beta A4 precursor protein-binding family A member 1 (Homo sapiens, UniProt Q00975+Q02410); type: protein assay
[16] = target: Heat shock protein HSP 90-alpha (Homo sapiens, UniProt P07900); type: functional, organism-based
[17] = target: Glucose-6-phosphate 1-dehydrogenase (Homo sapiens, UniProt P11413); experiment: inhibition of Homo sapiens G6PD, dose series – biochemical, fluorescence, selectivity assay for P. falciparum G6PD inhibitor project, dose response (AID 504792); type: functional
Sequence of Glucose-6-phosphate 1-dehydrogenase (P11413 whole entry): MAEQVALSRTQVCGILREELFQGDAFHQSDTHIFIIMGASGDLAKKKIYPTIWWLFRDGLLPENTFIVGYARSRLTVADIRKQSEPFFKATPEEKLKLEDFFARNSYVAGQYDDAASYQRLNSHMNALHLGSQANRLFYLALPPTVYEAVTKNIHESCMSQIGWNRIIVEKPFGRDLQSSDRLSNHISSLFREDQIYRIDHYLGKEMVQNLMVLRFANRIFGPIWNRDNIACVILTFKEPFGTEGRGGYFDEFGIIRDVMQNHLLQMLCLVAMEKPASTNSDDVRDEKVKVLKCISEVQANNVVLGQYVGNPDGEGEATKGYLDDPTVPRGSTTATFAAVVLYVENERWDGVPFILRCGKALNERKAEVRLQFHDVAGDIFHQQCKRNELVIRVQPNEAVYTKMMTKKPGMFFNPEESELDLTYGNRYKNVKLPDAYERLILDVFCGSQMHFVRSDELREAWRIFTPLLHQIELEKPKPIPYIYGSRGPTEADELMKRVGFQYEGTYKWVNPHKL

[18] = target: T6, Voltage-gated N-type calcium channel alpha-1B subunit/Amyloid beta A4 precursor protein-binding family A member 1; type: protein assay; remark: listed apart in the source

CSC1=N/C(=C\C=C\c2cccs2)C(=O)S1
AC50 [1]: 3.5 µM (active) | IC50 (Nonstructural protein 1): 69.4 µM (active) | EC50 [2]: 853 nM (active)

Cc1ccsc1-c1nnc(S)n1CC(C)C
IC50 [3]: > 100 µM (inactive) | IC50 [4]: 5.9 µM (active)

COc1cc(/C=N\Nc2nc(-c3ccc(C)cc3)c(NC(C)=O)s2)ccc1O
IC50 [5]: 3.02 µM (not active)

CCOC(=O)/C=C(\C)Sc1cc(=O)oc2ccccc12
IC50 [6]: > 80 µM (inactive) | AC50 [1]: 8.71 µM (active) | AC50 (HEK293): 12 µM (active)

Cc1ccc(/C=N/n2c(S)nnc2-c2ccco2)s1
IC50 [3]: > 100 µM (inactive) | IC50 [4]: 1.55 µM (active)

Cc1cccc(N/N=C/c2ccc(O)c(O)c2O)c1
EC50 [7]: > 50 µM (active) | IC50 (Genome polyprotein): 32.6 µM (active) | AC50 [8]: 1.36 µM (active)

S=C(Nc1ccccc1)c1ccccn1
EC50 [9]: 32.5 µM (active) | EC50 [10]: 32.8 µM (active) | IC50 (Beta-galactosidase): > 66.6 µM (inactive)

Cc1cccc(-c2nc(Nc3ccc(N4CCOCC4)cc3)c3ccccc3n2)c1
EC50 [11]: 1.23 µM (active) | IC50 [5]: > 54 µM (active) | EC50 [12]: > 60 µM (not active)

CC(C)(C)c1ccc(C(=O)Nc2cc(Cl)c(F)cc2C(=O)O)cc1
IC50 (Hexokinase): 2.79 µM (active)

N=c1c(S(=O)(=O)c2ccc(Br)cc2)cc2c(=O)n3ccccc3nc2n1Cc1ccco1
IC50 (SUMO-activating enzyme [13]): 3.92 µM (active) | IC50 (SUMO-activating enzyme [14]): 4.16 µM (active)

c1ccc(C2[C@H]3CN(CC4CCCCC4)[C@H](c4ccccc4)C34CC2(c2ccccc2)C4)cc1 (some centres not stated)
AC50 (Cytochrome P450 3A4): 5.01 µM (inconclusive)

CCOC(=O)c1ccc(NC(=O)CSc2nnc(CNc3ccc(OC)cc3)n2C)cc1
IC50 (Estrogen receptor): > 50 µM (not active)

O=C1C=CC(=O)N1c1ccc(N2CCCCC2)cc1
IC50 [15]: 9.34 µM (active) | IC50 [3]: > 100 µM (inactive) | AC50 [16]: 554 nM (active) | IC50 [4]: 7.13 µM (active) | IC50 [17]: > 80 µM (inactive) | IC50 [18]: 3.07 µM (active) | IC50 (Beta-galactosidase): > 66.6 µM (inactive)
